Entries after “also recorded” stand apart in the source; their conditions may differ.
Columns and labels:
permanent MCAO model = test: Permanent focal cerebral ischemia model (permanent MCAO); format: in vivo, rat
A2AR = molecular target: T1, A2AR (Rattus norvegicus, UniProt P30543); test: Competitive binding with [3H]-NECA, low-affinity site (two-site fit), rat cerebral cortex synaptic membranes; conditions: two-site competition fit, site 2; 25 nmol/L [3H]-NECA; rat cerebral cortex synaptic membrane; read-out: EC502, competitive binding with [3H]-NECA
T1 construct: Synaptic membranes of rat cerebral cortex are employed in the assay; from tissue; host or cells: rat cerebral cortex synaptic membranes
Procedure: (§1) Synaptic membranes of rat cerebral cortex are employed in the assay. After decapitation of the rat, cerebral cortex is separated and homogenized sufficiently in 1:15 (W/V) sucrose solution, after centrifuged, the supernatant is taken and centrifuged again. After discarding the supernatant, the sediment is resuspended in 1:30 (W/V) Tris-HCl buffer (50 mM, PH 7.4), homogenized, washed and then centrifuged, after repeating the wash process 3 times, the sediment is resuspended in 1:5 (W/V) Tris-HCl buffer (50 mM, PH 7.4) again and subpakaged, stored at −80° C. The protein concentration is measured by Bradford method (Bradford M M. A rapid and sensitive method for the quantitation of microgram quantities of proteins utilizing the principle of protein-dye binding. Anal Biochem. 1976; 72: 248-254.). All the above procedures are operated at 4° C.
(§2) The above model is used to evaluate the competitive binding of paeoniflorin with the A1R and A2aR receptor mixed agonist [^3H]-ethyl amide adenosine ([3H]-NECA) and the A1R receptor selective agonist [3H]-CCPA.
(§3) After decapitation of the rat, cerebral cortex was separated immediately, and put it into ice-cold physiological saline. […] The protein concentration was measured by Bradford method. […]

A1R [1] = molecular target: T2, A1R (Rattus norvegicus, UniProt P25099); test: Competitive binding with [3H]-CCPA, rat cerebral cortex synaptic membranes; conditions: 0.2 nmol/L [3H]-CCPA; rat cerebral cortex synaptic membrane
T2 construct: Synaptic membranes of rat cerebral cortex are employed in the assay; from tissue; host or cells: rat cerebral cortex synaptic membranes
T2 sequence (P25099 1-326): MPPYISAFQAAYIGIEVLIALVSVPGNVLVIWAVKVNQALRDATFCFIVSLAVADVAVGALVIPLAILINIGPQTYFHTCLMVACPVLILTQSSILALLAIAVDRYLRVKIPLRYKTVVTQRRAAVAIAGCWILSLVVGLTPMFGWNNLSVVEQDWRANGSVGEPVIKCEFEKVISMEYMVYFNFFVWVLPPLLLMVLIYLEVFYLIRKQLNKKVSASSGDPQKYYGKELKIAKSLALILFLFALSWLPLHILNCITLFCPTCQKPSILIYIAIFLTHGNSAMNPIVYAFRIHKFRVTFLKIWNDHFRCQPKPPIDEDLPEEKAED
Procedure: as §1, §2, §3

[2] = Blood pressure and heart rate of conscious rat (tail sleeve sensor); format: in vivo; conditions: 10, 40, 160 mg kg^−1 i.v., 5 min to 2 hr after administration
Procedure: The conscious rats are used as research subject, sensors of tail sleeve are used to transduce the pressure pulse to phototriodes and convert it into corresponding blood pressure and heart rate values. When the rats calm down, their blood pressure and heart rate values are recorded as the base values. Then, physiological saline, various doses of paeoniflorin and reserpine are injected through caudal vein respectively.
The changes of blood pressure and heart rate before the administration (0 min) and after the administration (5 min to 2 hr) are recorded.
The conscious rats were used as research subject, sensor of tail sleeve were used to transduce the pressure pulse to phototriodes and converted it into corresponding blood pressure value and heart rate values. When the rats calmed down, their blood pressure and heart rate value were recorded as the base values. Then, physiological saline, paeoniflorin (10, 40, 160 mg kg^−1) and reserpine were injected through caudal vein respectively.
The changes of blood pressure and heart rate before the administration (0 min) and after the administration (5 min to 2 hr) were recorded.

[3] = test system: mouse PD model induced by MPTP; test: MPTP-induced mouse PD model (pole test, TH staining); format: in vivo; conditions: 5 mg·kg^−1 s.c. for 11 days, C57B1/6J mice
Procedure: The mouse PD model induced by 1-methyl-4-phenyl-1,2,3,6-tetrahydro-pyridine (MPTP) is used to test the effect of paeoniflorin on the ability of climbing pole and the deletion of dopamine neuron of substantia nigra of midbrain in the PD model mouse. Male C57B1/6J mice of 20-25 g are used. The climbing pole time of the mice are measured before experiment. The mice are divided into 5 groups according to the climbing pole time and there are 8 mice in each group. Low dose and middle dose paeoniflorin are administered by subcutaneous injection for 11 days continuously, and 1-methyl-4-phenyl-1,2,3,6-tetrahydro-pyridine (MPTP) is injected intraperitoneally (ip) at 2 hours intervals for 4 times on day 8 of the experiment to induce mouse PD model.
The motor activity of the mice are measured by pole test, the mice are put on to the vertical coarse pole of 55 cm long and 8 mm diameter with head downward, and the time that the mice go downward to all the limbs contact the ground is measured (Hamaue N, Minami M, Terado M, Hirafuji M, Endo T, Machida M, Hiroshige T, Ogata A, Tashiro K, Saito H, Parvez S H. Comparative study of the effects of isatin, an endogenous MAO-inhibitor, and selegiline on bradykinesia and dopamine levels in a rat model of Parkinson's disease induced by the Japanese encephalitis virus. Neurotoxicology. 2004 January; 25(1-2):205-13.).
Male C57B1/6J mice of 20-25 g were used. The climbing pole time of the mice was measured before experiment. The mice were divided into 5 groups according to the climbing pole time and there were 8 mice in each group. Paeoniflorin (2.5 mg kg^−1, 5 mg kg^−1) were administered by subcutaneous injection for 11 days continuously, and 1-methyl-4-phenyl-1,2,3,6-tetrahydro-pyridine (MPTP) was injected intraperitoneally (ip) at 2 hours intervals for 4 times on day 8 of the experiment to induce mouse PD model. The administration schedule was as follows:
The mice were put on to the vertical coarse pole of 55 cm long and 8 mm diameter with head downward, and the time that the mice went downward to all the limbs contacted the ground was measured.
The heart was perfused with 4% paraformaldehyde to be pro-fixed, and then the cerebrum was taken out, and post-fixed with 4% formaldehyde solution for 1 week. Coronal sections were performed continuously (section thick […]). Tyrosine hydroxylase (TH) was used as the specific marker of dopamine neuron. The primary antibody was monoclonal mouse TH antibody (1:1000, Sigma), the second antibody was Alexa fluor 488 fluorescence labeled goat anti-mouse (1:1000, Molecular Probes). Photographs were taken under fluorescence microscope (Olympus DP70), and TH positive cells of substantia nigra were counted.

A1R [4] = molecular target: T2, A1R; test: Competitive binding with [3H]-NECA, high-affinity site (two-site fit), rat cerebral cortex synaptic membranes
Procedure: as §1, §2, §3

transient MCAO rats = test: Transient focal cerebral ischemia model (transient MCAO); format: in vivo; conditions: transient MCAO rat

T1 sequence (P30543 whole entry): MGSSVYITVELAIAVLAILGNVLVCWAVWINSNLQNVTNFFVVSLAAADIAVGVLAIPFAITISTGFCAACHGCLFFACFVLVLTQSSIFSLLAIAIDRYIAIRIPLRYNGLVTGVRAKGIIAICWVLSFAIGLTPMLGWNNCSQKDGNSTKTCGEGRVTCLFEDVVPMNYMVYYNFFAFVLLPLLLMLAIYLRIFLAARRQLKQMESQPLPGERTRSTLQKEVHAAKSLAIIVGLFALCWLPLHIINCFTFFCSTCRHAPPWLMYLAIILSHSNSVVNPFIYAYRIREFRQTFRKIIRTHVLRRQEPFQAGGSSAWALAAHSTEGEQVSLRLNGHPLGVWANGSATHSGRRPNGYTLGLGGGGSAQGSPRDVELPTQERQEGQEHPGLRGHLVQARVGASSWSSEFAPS

Compound	effect of DPCPX on the protection by paeoniflorin (permanent MCAO model; DPCPX s.c. 15 min before ischemia + paeoniflorin 10 mg·kg^−1 s.c.)	injury of cerebral subcortical nucleus and cerebral cortex caused by ischemia, dose dependence (permanent MCAO model; 2.5, 5, 10 mg·kg^−1 s.c., TTC staining)	EC50 (A2AR)	EC50 (A1R [1])	blood pressure of conscious rats [2]	heart rate of conscious rats [2]	blood pressure of conscious rats ([2]; listed as Paeoniflorin)	heart rate of conscious rats ([2]; listed as Paeoniflorin)	deletion of dopaminergic neuron induced by MPTP (TH staining, substantia nigra) [3]	motor dysfunction (bradykinesia) caused by MPTP, pole test [3]	deletion of dopaminergic neuron induced by MPTP (TH staining, substantia nigra) ([3]; listed as Paeoniflorin)	motor dysfunction (bradykinesia) caused by MPTP, pole test ([3]; listed as Paeoniflorin)	selectivity EC502/EC501 (A1R [4]; A1R over A2AR, [3H]-NECA two-site fit)	EC50 (A1R [4]; two-site competition fit, site 1, 25 nmol/L [3H]-NECA, rat cerebral cortex synaptic membrane, read-out: EC501, competitive binding with [3H]-NECA)	neurological symptom (neurological defect score) (transient MCAO rats; 5 mg·kg^−1 s.c. at 15 min and 6 h after ischemia)	injury of cerebral subcortical nucleus and cerebral cortex caused by ischemia (transient MCAO rats; 5 mg·kg^−1 s.c., TTC staining)
CCCn1c(=O)c2[nH]c(C3CCCC3)nc2n(CCC)c1=O [DPCPX]	this effect can be antagonized; also recorded: block the protection of paeoniflorin; also recorded: this effect could be inhibited	–	–	–	–	–	–	–	–	–	–	–	–	–	–	–
β-D-Glucopyranoside,56-[(benzoyloxy)methyl]tetrahydro-5-hydroxy-2-methyl-2,5-methano-1H-3,4-dioxacyclobuta[cd]Pentalen-1a(2H)-yl,[lar-claα,2β,3aα,5aα,5bα]] [paeoniflorin]	–	decreases the injury of cerebral subcortical nucleus and cerebral cortex caused by ischemia dose-dependently; also recorded: dose-dependently decreased the defect	5000 nM	19.8 nM	does not affect	does not affect	did not affect	did not affect	antagonize the deletion of dopaminergic neuron	significantly improve the motor dysfunction	significantly antagonized	significantly antagonized	360 times	13.9 nM	improves the neurological symptom; also recorded: obviously improved the neurological symptom	significantly decreases the injury; also recorded: significantly decreased the defect
